Laboratory results as given in patent US20100009395A1, “LUMINESCENCE ASSAY UTILIZING A GENETICALLY MODIFIED CELL LINE” (priority 2006, published 2010).
Entries after “also recorded” stand apart in the source; their conditions may differ.

How the values were obtained:
Assay type in all cases: cell-based
[1] = test system: I-kappa B-luciferase (IkB-Luc) fusion protein; experiment: IkB-Luc degradation luciferase (luminescence imaging) assay in stably transfected HCT-116 cells; conditions: human urine sample two hours after ingestion of 8 g curcumin
Description: This construct has been transfected into HeLa and HCT-116 cells.
The substrate for luciferase, D-luciferin was also added to the cells at the same time, and the cells were incubated in extremely light-tight, low-background imaging chamber, at 37° C. Photon luminescence emitted from the cells is detected with a back-thinned CCD camera, designed for high-efficiency photon detection, particularly in the important red region of the spectrum.
The imaging assay cells were plated in a 24 well dish and allowed to grow for 24 hours; they were then treated with 10 ng/ml TNF-alpha, the substrate for luciferase, D-luciferin was also added at the same time, the cells were then incubated in a light-tight, low background imaging chamber, at 37° C.
Photon luminescence emitted from the cells was detected with a back-thinned CCD camera, designed for high-efficiency photon detection. The CCD is cooled and the electronic readout is optimized so that the data gathered extremely low noise.
HCT-116 cells stably expressing I-kB-Luc were incubated for 2 hours with increasing concentrations (0-1000 μl) control or post-curcumin ingested urine. Subsequently, some of the cells were treated with TNF-alpha. The level of I-kB degradation was determined by the luciferase assay. […] Similar experiments were conducted with black raspberry extracts.

COX-2 gene expression = experiment: COX-2 expression in HCT-116 cells after induction with TNF-alpha, EGF or IL-1; conditions: 1 hour pre-incubation, then TNF-alpha, EGF or IL-1 for 1 hour
Description: Endogenous levels of COX-2 were determined following addition of the three botanical extracts. After incubating the HCT-116 cells with the different fractions for 1 hour, the cells were treated with TNF-alpha, EGF or IL-1 […] (all known inducers of COX-2 expression) for an additional 1 hour to induce high levels of COX-2 expression.

[2] = test system: native I-kappa B and I-kappa B-luciferase (IkB-Luc); experiment: Western blot of total cell lysates from TNF-alpha-treated HCT-116 cells; conditions: incubation with TNF-alpha
Description: In this experiment the degradation of I-kappa B was investigated. The I-kappa B was stably expressed as a fusion protein with the firefly luciferase in HCT-116 colon cancer cells. Presence of I-kappa B can then be monitored by luminescence activity. It was determined that the fusion protein is subject to similar levels of degradation in response to a stimulus such as tumor necrosis factor-alpha (TNF-alpha), a known inducer of phosphorylation and degradation of I-kappa B, as would be the case with the native of I-kappa B. Western blot analyses of total cell lysates from TNF-alpha-treated cells were subjected to western blot analyses. Both, native I-kappa B and I-kappa B-luciferase (IkB-Luc) levels were decreased within 20 minutes of incubation with TNF-alpha.

| Compound | protection of IkB-Luc from TNF-alpha-mediated degradation [1] | protection of IkB-Luc from TNF-alpha-mediated degradation ([1]; listed as cucurmin) | COX-2 gene expression (COX-2 gene expression) | time to decrease of native I-kappa B and IkB-Luc levels [2] [min] |
| --- | --- | --- | --- | --- |
| COc1cc(/C=C/C(=O)CC(=O)/C=C/c2ccc(O)c(OC)c2)ccc1O [curcumin] | significant increase in the protection of the IkB-Luc from TNF-alpha-mediated degradation; also recorded: reduced the TNF degradation of I kappa B-Luc | significantly inhibited the IkB-Luc degradation | inhibitor of COX-2 gene expression | – |
| TNF-alpha | – | – | – | ≤ 20 |
